Where “and” joins values, the source holds several entries; their conditions need not be identical. Equal values may be shown once. Numbers after ± are expanded uncertainties.

The nature of data set [1]: Molar enthalpy of transition or fusion. As to conditions: Crystal; DSC.
For data set [2] the following is noted: Crystal; DTA.

On to `OC[C@@H](O)[C@@H](O)[C@H](O)[C@H](O)CO` [D-mannitol], for which the “Molar enthalpy of transition or fusion” value in data set [1] is 12.9 kcal/mol and 12.4 kcal/mol and 12.5 kcal/mol. In addition, the Normal melting temperature in data set [2] was 165.73 ± 2 °C and 166.68 ± 2 °C and 165.74 ± 2 °C.

For the origin of these results see the NIST ThermoML archive (doi:10.1016/j.tca.2017.12.026).
